ChEMBL document CHEMBL5316285 (J Med Chem, 2023)
Calls of active or inactive are those of the source. No cut-off for these calls is given here.

Tests used:
[1] = Toxicity in nude mouse xenografted with human A2780 cells assessed as loss in body weight at 2 uM/Kg, IV once every 3 days upto 21 days; details: 504 h, time 21 day
[2] = Retinal toxicity in nude mouse xenografted with human A2780 cells at 2 uM/Kg, IV once every 3 days upto 21 days by microscopic analysis; details: 504 h, time 21 day
[3] = molecular target: T1, Nicotinamide phosphoribosyltransferase (Homo sapiens, UniProt P43490); assay: Inhibition of NAMPT (unknown origin) using NAM as substrate preincubated for 5 mins followed by substrate addition measured after 15 mins in presence of ATP by fluorescence based microplate reader analysis
Target sequence in this assay (P43490 whole entry): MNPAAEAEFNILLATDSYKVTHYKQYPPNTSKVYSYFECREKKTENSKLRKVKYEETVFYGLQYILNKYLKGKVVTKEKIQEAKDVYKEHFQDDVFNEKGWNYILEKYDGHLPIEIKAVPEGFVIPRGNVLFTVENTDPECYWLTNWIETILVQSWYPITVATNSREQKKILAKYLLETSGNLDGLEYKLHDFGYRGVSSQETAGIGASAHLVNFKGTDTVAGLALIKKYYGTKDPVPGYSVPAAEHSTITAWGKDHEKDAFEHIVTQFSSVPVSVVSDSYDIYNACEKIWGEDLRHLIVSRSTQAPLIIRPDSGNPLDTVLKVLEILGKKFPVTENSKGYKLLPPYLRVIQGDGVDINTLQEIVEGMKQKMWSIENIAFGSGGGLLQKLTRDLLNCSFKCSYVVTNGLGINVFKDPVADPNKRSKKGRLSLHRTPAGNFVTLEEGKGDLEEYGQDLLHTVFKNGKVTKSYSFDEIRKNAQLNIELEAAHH

[4] = molecular target: T2, von Hippel-Lindau disease tumor suppressor/Nicotinamide phosphoribosyltransferase (Homo sapiens, UniProt P43490+P40337); assay: Protac activity at VHL/NAMPT in human A2780 cells assessed as degradation of NAMPT using NAM as substrate preincubated for 5 mins followed by substrate addition measured after 5 mins in presence of ATP by luminesence based microplate reader analysis; assay type: cell-based
Target sequence in this assay (P43490 whole entry): as above
Target sequence in this assay (P40337 whole entry): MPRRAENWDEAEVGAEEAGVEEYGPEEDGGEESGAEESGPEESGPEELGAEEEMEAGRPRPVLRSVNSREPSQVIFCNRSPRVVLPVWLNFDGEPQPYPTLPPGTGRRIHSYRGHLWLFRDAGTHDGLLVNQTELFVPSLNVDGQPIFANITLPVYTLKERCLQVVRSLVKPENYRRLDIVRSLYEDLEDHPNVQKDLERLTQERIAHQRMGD

A2780 [5] = assay: Antiproliferative activity against human A2780 cells incubated for 72 hrs in carbon-dioxide atmosphere measured by cell counting kit-8 method; assay type: functional, cell-based; details: A2780, 72 h
[6] = molecular target: T2, von Hippel-Lindau disease tumor suppressor/Nicotinamide phosphoribosyltransferase; assay: Protac activity at VHL/NAMPT in human A2780 cells assessed as reduction of NAMPT protein level at 10 nM measured after 24 hrs by Western blotting analysis; assay type: cell-based
Target sequence in this assay (P40337 whole entry, looked up): as the sequence (P40337 whole entry) above
Target sequence in this assay (P43490 whole entry, looked up): as the sequence (P43490 whole entry) above

[7] = molecular target: T2, von Hippel-Lindau disease tumor suppressor/Nicotinamide phosphoribosyltransferase; assay: Protac activity at VHL/NAMPT in human A2780 cells assessed as induction of NAMPT degradation measured at 0.005 to 10 microM after 24 hrs by Western blotting analysis; assay type: cell-based; details: dose 0.005-10 µM
Target sequence in this assay (P40337 whole entry, looked up): as the sequence (P40337 whole entry) above
Target sequence in this assay (P43490 whole entry, looked up): as the sequence (P43490 whole entry) above

[8] = molecular target: T2, von Hippel-Lindau disease tumor suppressor/Nicotinamide phosphoribosyltransferase; assay: Protac activity at VHL/NAMPT in human A2780 cells assessed as reduction of NAMPT protein level at greater than 0.37 uM measured after 24 hrs by Western blotting analysis; assay type: cell-based
Target sequence in this assay (P40337 whole entry, looked up): as the sequence (P40337 whole entry) above
Target sequence in this assay (P43490 whole entry, looked up): as the sequence (P43490 whole entry) above

CT26 = assay: Antiproliferative activity against mouse CT26 cells; assay type: functional, cell-based
[9] = molecular target: T2, von Hippel-Lindau disease tumor suppressor/Nicotinamide phosphoribosyltransferase; assay: Protac activity at VHL/NAMPT in human A2780 cells assessed as induction of NAMPT degradation measured at 10 nM; assay type: cell-based; details: time <= 24.0 hrs, TDE = time-dependent effect
Target sequence in this assay (P40337 whole entry, looked up): as the sequence (P40337 whole entry) above
Target sequence in this assay (P43490 whole entry, looked up): as the sequence (P43490 whole entry) above

[10] = molecular target: T1, Nicotinamide phosphoribosyltransferase; assay: Binding affinity to NAMPT in human A2780 cells incubated at 10 uM measured from 63 to 75 degreeC for 7 hrs by cellular thermal shift assay; assay type: cell-based
Target sequence in this assay (P43490 whole entry, looked up): as the sequence (P43490 whole entry) above

[11] = molecular target: von Hippel-Lindau disease tumor suppressor (Homo sapiens) (UniProt P40337); assay: Binding affinity to VHL in human A2780 cells incubated at 10 uM measured from 63 to 75 degreeC for 7 hrs by cellular thermal shift assay; assay type: cell-based
Sequence of von Hippel-Lindau disease tumor suppressor (Homo sapiens) (P40337 whole entry, looked up): as the sequence (P40337 whole entry) above

[12] = molecular target: T1, Nicotinamide phosphoribosyltransferase; assay: Competitive binding activity at NAMPT in human A2780 cells assessed as blocking of NAMPT degradation pretreated with 200 nM of 1-(4-(piperidin-1-ylsulfonyl)phenyl)-3-(pyridin-3-ylmethyl)thiourea for 2 hrs followed by compound addition at 10 nM measured after 24 hrs by Western blotting analysis; assay type: cell-based
Target sequence in this assay (P43490 whole entry, looked up): as the sequence (P43490 whole entry) above

[13] = molecular target: T1, Nicotinamide phosphoribosyltransferase; assay: Competitive binding activity at NAMPT in human A2780 cells assessed as blocking of NAMPT degradation pretreated with 100 uM of (2S,4R)-1-((S)-2-acetamido-3,3-dimethylbutanoyl)-4-hydroxy-N-((S)-1-(4-(4-methylthiazol-5-yl)phenyl)ethyl)pyrrolidine-2-carboxamide for 2 hrs followed by compound addition at 10 nM measured after 24 hrs by Western blotting analysis; assay type: cell-based
Target sequence in this assay (P43490 whole entry, looked up): as the sequence (P43490 whole entry) above

[14] = molecular target: T1, Nicotinamide phosphoribosyltransferase; assay: Competitive binding activity at NAMPT in human A2780 cells assessed as blocking of NAMPT degradation pretreated with carfilzomib for 2 hrs followed by compound addition at 10 nM measured after 24 hrs by Western blotting analysis; assay type: cell-based
Target sequence in this assay (P43490 whole entry, looked up): as the sequence (P43490 whole entry) above

[15] = molecular target: T1, Nicotinamide phosphoribosyltransferase; assay: Competitive binding activity at NAMPT in human A2780 cells assessed as blocking of NAMPT degradation pretreated with MLN4924 for 2 hrs followed by compound addition at 10 nM measured after 24 hrs by Western blotting analysis; assay type: cell-based
Target sequence in this assay (P43490 whole entry, looked up): as the sequence (P43490 whole entry) above

[16] = molecular target: T1, Nicotinamide phosphoribosyltransferase; assay: Competitive binding activity at NAMPT in human A2780 cells assessed as blocking of NAMPT degradation pretreated with epoxomicin for 2 hrs followed by compound addition at 10 nM measured after 24 hrs by Western blotting analysis; assay type: cell-based
Target sequence in this assay (P43490 whole entry, looked up): as the sequence (P43490 whole entry) above

[17] = molecular target: T1, Nicotinamide phosphoribosyltransferase; assay: Competitive binding activity at NAMPT in human A2780 cells assessed as blocking of NAMPT degradation pretreated with MG132 for 2 hrs followed by compound addition at 10 nM measured after 24 hrs by Western blotting analysis; assay type: cell-based
A2780 [18] = assay: Downregulation of NAD+ in human A2780 cells treated upto 1000 nM for 24 hrs by chromogen based assay; assay type: functional, cell-based
[19] = Half life in Sprague-Dawley rat plasma at 5 mg/kg, iv by LC-MS/MS analysis; assay type: ADME, organism-based
[20] = Half life in mouse plasma at 5 mg/kg, iv by LC-MS/MS analysis; assay type: ADME, organism-based
[21] = Cmax in Sprague-Dawley rat plasma at 5 mg/kg, iv after 0.083 to 24 hrs by LC-MS/MS analysis; assay type: ADME, organism-based; set-up: dose 5 mg/kg, time upper 24 hrs, time lower 0.083 hrs, route iv
[22] = Cmax in mouse plasma at 5 mg/kg, iv after 0.083 to 24 hrs by LC-MS/MS analysis; assay type: ADME, organism-based; set-up: time upper 24 hrs, dose 5 mg/kg, time lower 0.083 hrs, route iv
[23] = AUC in Sprague-Dawley rat plasma at 5 mg/kg, iv after 0.083 to 24 hrs by LC-MS/MS analysis; assay type: ADME, organism-based; set-up: dose 5 mg/kg, time upper 24 hrs, time lower 0.083 hrs, route iv
[24] = AUC in mouse plasma at 5 mg/kg, iv after 0.083 to 24 hrs by LC-MS/MS analysis; assay type: ADME, organism-based; set-up: time lower 0.083 hrs, dose 5 mg/kg, time upper 24 hrs, route iv
[25] = Cmax in Sprague-Dawley rat plasma at 20 mg/kg, IP after 0.083 to 24 hrs by LC-MS/MS analysis; assay type: ADME, organism-based; set-up: time lower 0.083 hrs, dose 20 mg/kg, time upper 24 hrs, route ip
[26] = Cmax in mouse plasma at 20 mg/kg, IP after 0.083 to 24 hrs by LC-MS/MS analysis; assay type: ADME, organism-based; set-up: time upper 24 hrs, time lower 0.083 hrs, dose 20 mg/kg, route ip
A2780 [27] = assay: Antitumor activity against human A2780 cells xenografted in nude mouse assessed as tumor growth inhibition at 2 uM/Kg, IV once every 3 days upto 21 days relative to control; assay type: functional; details: time 21 day, at 2 µmol/kg
[28] = Toxicity in nude mouse xenografted with human A2780 cells assessed as pathological damage in heart at 2 uM/Kg, IV once every 3 days upto 21 days by hematoxylin and eosin staining analysis; assay type: tissue-based; details: 504 h, time 21 day
[29] = Toxicity in nude mouse xenografted with human A2780 cells assessed as pathological damage in liver at 2 uM/Kg, IV once every 3 days upto 21 days by hematoxylin and eosin staining analysis; assay type: tissue-based; details: 504 h, time 21 day
[30] = Toxicity in nude mouse xenografted with human A2780 cells assessed as pathological damage in spleen at 2 uM/Kg, IV once every 3 days upto 21 days by hematoxylin and eosin staining analysis; assay type: tissue-based; details: 504 h, time 21 day
[31] = Toxicity in nude mouse xenografted with human A2780 cells assessed as pathological damage in lung at 2 uM/Kg, IV once every 3 days upto 21 days by hematoxylin and eosin staining analysis; assay type: tissue-based; details: 504 h, time 21 day
[32] = Toxicity in nude mouse xenografted with human A2780 cells assessed as pathological damage in kidney at 2 uM/Kg, IV once every 3 days upto 21 days by hematoxylin and eosin staining analysis; assay type: tissue-based; details: 504 h, time 21 day
A2780 [33] = assay: Antitumor activity against human A2780 cells xenografted in nude mouse assessed as necrotic tumor cells at 2 uM/Kg, IV once every 3 days upto 21 days relative by hematoxylin and eosin staining analysis; assay type: functional, cell-based; details: time 21.0 day
A2780 [34] = assay: Antitumor activity against human A2780 cells xenografted in nude mouse assessed as reduction in Ki67 expression in tumor tissue at 2 uM/Kg, IV once every 3 days upto 21 days relative by immuno histochemical analysis; assay type: functional, cell-based; details: time 21.0 day
A2780 [35] = assay: Antitumor activity against human A2780 cells xenografted in nude mouse assessed as reduction in NAMPT protein level in tumor tissue at 2 uM/Kg, IV after 3 days by immuno histochemical analysis; assay type: functional, cell-based; details: time 3.0 day
[36] = Half life in Sprague-Dawley rat plasma at 20 mg/kg, IP by LC-MS/MS analysis; assay type: ADME, organism-based
[37] = Tmax in Sprague-Dawley rat plasma at 5 mg/kg, iv by LC-MS/MS analysis; assay type: ADME, organism-based; details: time 0.083-24 hrs
[38] = Tmax in Sprague-Dawley rat plasma at 20 mg/kg, IP by LC-MS/MS analysis; assay type: ADME, organism-based
[39] = AUC in Sprague-Dawley rat plasma at 20 mg/kg, IP after 0.083 to 24 hrs by LC-MS/MS analysis; assay type: ADME, organism-based; set-up: dose 20 mg/kg, time 0.083-24 hrs, route ip
[40] = MRT in Sprague-Dawley rat plasma at 20 mg/kg, IP after 0.083 to 24 hrs by LC-MS/MS analysis; assay type: ADME, organism-based; details: time 0.083-24 hrs
[41] = MRT in Sprague-Dawley rat plasma at 5 mg/kg, iv after 0.083 to 24 hrs by LC-MS/MS analysis; assay type: ADME, organism-based; details: time 0.083-24 hrs

**Q.** For `Cc1ncsc1-c1ccc([C@H](C)NC(=O)[C@@H]2C[C@@H](O)CN2C(=O)[C@@H](NC(=O)CCCCCCCCN2CCN(S(=O)(=O)c3ccc(NC(=O)NCc4cccnc4)cc3)CC2)C(C)(C)C)cc1`, which Activity [1] is on record?
**A.** Non-Toxic

**Q.** And the Activity [2]?
**A.** Non-Toxic

**Q.** And the IC50 [3]?
**A.** 150 nM

**Q.** What about the DC50 [4] of the same molecule?
**A.** < 0.17 nM

**Q.** What about the IC50 (A2780 [5]) of the same molecule?
**A.** 1.5 nM

**Q.** What about the Activity [6] of the same molecule?
**A.** Active

**Q.** And the Activity [7]?
**A.** Dose-Dependent Effect

**Q.** What about the Activity [8] of the same molecule?
**A.** inactive

**Q.** And the IC50 (CT26)?
**A.** 670 nM

**Q.** And the Activity [9]?
**A.** Tde

**Q.** And the Activity [10]?
**A.** Active

**Q.** And the Activity [11]?
**A.** Active

**Q.** And the Activity [12]?
**A.** Active

**Q.** And the Activity [13]?
**A.** Active

**Q.** And the Activity [14]?
**A.** Active

**Q.** What about the Activity [15] of the same molecule?
**A.** Active

**Q.** What about the Activity [16] of the same molecule?
**A.** Active

**Q.** What about the Activity [17] of the same molecule?
**A.** Active

**Q.** What about the Activity (A2780 [18]) of the same molecule?
**A.** Active

**Q.** And the half-life [19]?
**A.** 6.53 h

**Q.** And the half-life [20]?
**A.** 3.72 h

**Q.** And the Cmax [21]?
**A.** 3190 ng/mL

**Q.** What about the Cmax [22] of the same molecule?
**A.** 1080 ng/mL

**Q.** What about the AUC [23] of the same molecule?
**A.** 1310 ng·h/mL

**Q.** What about the AUC [24] of the same molecule?
**A.** 477 ng·h/mL

**Q.** And the Cmax [25]?
**A.** 250 ng/mL

**Q.** And the Cmax [26]?
**A.** 417 ng/mL

**Q.** And the TGI (A2780 [27])?
**A.** 88.1%

**Q.** What about the Activity [28] of the same molecule?
**A.** Non-Toxic

**Q.** And the Activity [29]?
**A.** Non-Toxic

**Q.** What about the Activity [30] of the same molecule?
**A.** Non-Toxic

**Q.** And the Activity [31]?
**A.** Non-Toxic

**Q.** What about the Activity [32] of the same molecule?
**A.** Non-Toxic

**Q.** And the Activity (A2780 [33])?
**A.** Active

**Q.** What about the Activity (A2780 [34]) of the same molecule?
**A.** Active

**Q.** What about the Activity (A2780 [35]) of the same molecule?
**A.** Active

**Q.** And the half-life [36]?
**A.** 5.41 h

**Q.** And the Tmax [37]?
**A.** 4.8 min

**Q.** What about the Tmax [38] of the same molecule?
**A.** 5 h

**Q.** And the AUC [39]?
**A.** 1740 ng·h/mL

**Q.** And the MRT [40]?
**A.** 7.51 h

**Q.** And the MRT [41]?
**A.** 4.45 h
